This is an account of results in patent US5223485A, “Anaphylatoxin-receptor ligands” (Abbott Laboratories, priority 1991, dated 1993).

Bridge positions count the residues as written; N and C are the ends. Square brackets hold non-standard residues; d marks the D form. Peptide text beside a SMILES is read from it. * marks the point of attachment. Cha = N[C@@H](CC1CCCCC1)C(=O)O; dPen = CC(C)(S)[C@@H](N)C(=O)O; dNMeA = CN[C@H](C)C(=O)O; Bz = O=C(c1ccccc1)*

This experiment addresses T1, C5a Receptor (Homo sapiens, UniProt P21730).
T1 construct: 2.5-25 μg/mL of purified PMNL membrane fragments; from tissue; host or cells: polymorphonuclear leukocyte (PMNL) membrane fragments
T1 sequence (P21730 1-350): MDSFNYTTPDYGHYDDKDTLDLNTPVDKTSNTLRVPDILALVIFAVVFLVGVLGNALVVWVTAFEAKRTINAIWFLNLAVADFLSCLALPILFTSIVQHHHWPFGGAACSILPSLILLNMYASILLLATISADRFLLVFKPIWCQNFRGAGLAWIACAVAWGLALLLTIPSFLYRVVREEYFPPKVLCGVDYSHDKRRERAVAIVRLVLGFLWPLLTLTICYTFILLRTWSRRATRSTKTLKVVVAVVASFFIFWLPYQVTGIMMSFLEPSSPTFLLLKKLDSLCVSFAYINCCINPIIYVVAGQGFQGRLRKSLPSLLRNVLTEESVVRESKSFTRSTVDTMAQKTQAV
The experiment in a line: Anaphylatoxin receptor binding Ki determination: inhibition of 125I-C5a binding to PMNL membrane fragments. Conditions: 0.03-1 nM 125I-C5a, 2.5-25 μg/mL purified PMNL membrane fragments, filtration; read-out: In vitro C5a Receptor Binding Potency Ki. How it is done: Specific inhibition of C5a binding activity of representative compounds of the present invention was measured using 0.03-1 nM ^125 I-C5a with 2.5-25 μg/mL of purified PMNL membrane fragments (Borregaard, N.; Heiple, J. M.; Simons, E. R.; and Clark, R. A. J. Cell. Biol. 1983, 97, 52-61.). Free and membrane-bound ligand were separated by filtration.

On to `CC(C)C[C@H](NC(=O)[C@@H](Cc1ccccc1)NC(=O)[C@H](CC1CCCCC1)NC(=O)[C@H](C)NC(=O)[C@H](CCCCN)NC(=O)[C@@H](N)Cc1ccccc1)C(=O)N[C@H](C)C(=O)N[C@@H](CCCNC(=N)N)C(=O)O` [Example 220, H-Phenylalanyl-Lysyl-Alanyl-{(2S)-2-Amino-3-cyclohexylpropanoyl}-DPhenylalanyl-Leucyl-DAlanyl-Arginyl-OH] (H-FKA[Cha][dF]L[dA]R-OH), for which the Ki (as a rule, a measure of affinity in units of concentration, obtained from inhibition or displacement) came out at 220 nM.
Then `CC(C)C[C@H](NC(=O)[C@H](CC1CCCCC1)NC(=O)[C@H](CC1CCCCC1)NC(=O)[C@H](C)NC(=O)[C@H](CCCCN)NC(=O)[C@@H](N)Cc1ccccc1)C(=O)N(C)[C@H](C)C(=O)N[C@@H](CCCNC(=N)N)C(=O)O` [Example 229, H-Phenylalanyl-Lysyl-Alanyl-{(2S)-2-Amino-3-cyclohexylpropanoyl}-{(2S)-2-Amino-3-cyclohexylpropanoyl}-Leucyl-(N-Methyl)DAlanyl-Arginyl-OH] (H-FKA[Cha][Cha]L[dNMeA]R-OH), with 33 nM; and `CC(C)C[C@H](NC(=O)[C@H](CC1CCCCC1)NC(=O)[C@H](Cc1c[nH]c2ccccc12)NC(=O)[C@H](C)NC(=O)[C@H](CCCCN)NC(=O)[C@@H](N)Cc1ccccc1)C(=O)N[C@H](C)C(=O)N[C@@H](CCCNC(=N)N)C(=O)O` [Example 245, H-Phenylalanyl-Lysyl-Alanyl-Tryptophyl-{(2S)-2-Amino-3-cyclohexylpropanoyl}-Leucyl-DAlanyl-Arginyl-OH] (H-FKAW[Cha]L[dA]R-OH), with 52 nM; and `CC(C)C[C@H](NC(=O)[C@H](CC1CCCCC1)NC(=O)[C@@H](C)NC(=O)[C@H](C)NC(=O)[C@H](CCCCN)NC(=O)[C@@H](N)Cc1ccccc1)C(=O)N[C@H](C)C(=O)N[C@@H](CCCNC(=N)N)C(=O)O` [Example 247, H-Phenylalanyl-Lysyl-Alanyl-DAlanyl-{(2S)-2-Amino-3-cyclohexylpropanoyl}-Leucyl-DAlanyl-Arginyl-OH] (H-FKA[dA][Cha]L[dA]R-OH), with 330 nM.
Consider `C[C@H](NC(=O)[C@H](CCCCN)NC(=O)[C@@H](N)Cc1ccccc1)C(=O)N[C@@H](CC1CCCCC1)C(=O)NCC(=O)N[C@H](Cc1c[nH]c2ccccc12)C(=O)N[C@H](C)C(=O)N[C@@H](CCCNC(=N)N)C(=O)O` [Example 249, H-Phenylalanyl-Lysyl-Alanyl-{(2S)-2-Amino-3-cyclohexylpropanoyl}-Glycyl-DTryptophyl-DAlanyl-Arginyl-OH] (H-FKA[Cha]G[dW][dA]R-OH), for which the Ki amounted to 110 nM.
In the case of `CC(C)C[C@@H]1NC(=O)[C@H](CC2CCCCC2)NC(=O)[C@H](CC2CCCCC2)NC(=O)[C@H](C)NC(=O)[C@H](CCCCN)NC(=O)[C@H](NC(=O)c2ccccc2)C(C)(C)SSC[C@H](C(=O)N[C@@H](CCCNC(=N)N)C(=O)O)NC1=O` [Example 279, Benzoyl-DPenicillaminyl*-Lysyl-Alanyl-{(2S)-2-Amino-3-cyclohexylpropanoyl)-{(2S)-2-Amino-3-cyclohexylpropanoyl}-Leucyl-DCysteinyl*-Arginyl-OH] (Bz-[dPen]KA[Cha][Cha]L[dC]R-OH; disulfide 1-7), the Ki was found to be 4000 nM.
Consider `CC(C)C[C@H](NC(=O)CNC(=O)[C@@H](Cc1ccccc1)NC(=O)[C@H](C)NC(=O)[C@H](CCCCN)NC(=O)[C@@H](N)Cc1ccccc1)C(=O)N[C@H](C)C(=O)N[C@@H](CCCNC(=N)N)C(=O)O` [Example 282, H-Phenylalanyl-Lysyl-Alanyl-DPhenylalanyl-Glycyl-Leucyl-DAlanyl-Arginyl-OH] (H-FKA[dF]GL[dA]R-OH), for which the inhibition constant (Ki) is 29 nM.
Then `CC(C)C[C@H](NC(=O)[C@H](C)NC(=O)[C@H](C)NC(=O)[C@H](CCCCN)NC(=O)[C@@H](N)Cc1ccccc1)C(=O)N[C@@H](C)C(=O)N[C@H](C)C(=O)N[C@@H](CCCNC(=N)N)C(=O)O` [Example 295, H-Phenylalanyl-Lysyl-Alanyl-Alanyl-Leucyl-Alanyl-DAlanyl-Arginyl-OH] (H-FKAALA[dA]R-OH), with 3300 nM.
